Assay results: US20090176887A1, “Biocidal Compositions and Methods” (priority 2006, published 2009)

Assays:
Assay in all cases: Broth dilution method for determining MIC
Conditions in all cases: pH adjusted to about 7, blend as ascorbic acid:ADBAC/DDAC
E coli = format: cell-based, Escherichia coli
Protocol: (§1) The synergistic activities of different components in a composition (control, conventional comparative, or of the present technology) is determined by the method described by Kull et al. in […], Vol. 9, pages 538-541 (1961), which uses a synergy index to indicates whether synergy exists. A synergy index less than one (<1) indicates synergy; a synergy index of one (1) indicates additivity; a synergy index greater than one (>1) indicates antagonism.
(§2) When applied to Example 1 below, the synergy index of L-ascorbic acid and ADBAC/DDAC can be determined by the following equation:
(§3) Synergy Index=Qa/QA+Qb/QB, […]
(§4) The Minimum Inhibitory Concentration (MIC) of a chemical against a certain bacterium is determined according to the broth dilution method described in National Committee for Clinical Laboratory Standards entitled, “Methods for Dilution Antimicrobial Susceptibility Test for Bacteria that Grow Aerobically” document M7-A2, 2nd ed., 10:8, 1990. […]
(§5) In this example, standard MIC values of ascorbic acid, ADBAC/DDAC, and a 1:1 blend of ascorbic acid and ADBAC/DDAC were determined against E coli, S. aureus, and P. aeruginosa according to the broth dilution method introduced above. […] The synergy index of the 1:1 blend of ascorbic acid and ADBAC/DDAC against each of the biocidal targets was then calculated according to the method as described above.

S. aureus = format: cell-based, Staphylococcus aureus
Protocol: as §1, §2, §3, §4, §5

P. aeruginosa = format: cell-based, Pseudomonas aeruginosa
Protocol: as §1, §2, §3, §4, §5

Measured: MIC

O=C1O[C@H]([C@@H](O)CO)C(O)=C1O [L-Ascorbic Acid]
>10,000 ppm, active: all assays above
